In patent publication US8653041B2, “Antibacterial aminoglycoside analogs” (Achaogen, Inc., priority 2010, dated 2014):

Tests used:
[1] = 14-day rat toxicology (nephrotoxicity), once-daily subcutaneous injection; settings: once daily, 14 days, Sprague-Dawley rat
Protocol: The study design utilized once-daily subcutaneous injection administration to the rat for 14 days and assessment of reversibility of any changes following a 28-day recovery period.
The dose volume administered to each animal was 1 mL/kg.

[2] = tested on: Pseudomonas aeruginosa; assay: MIC, CLSI broth microdilution, Pseudomonas aeruginosa panel; assay type: cell-based
In short: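 Reference CLSI broth microdilution: two-fold compound dilutions in Mueller Hinton Broth, mixed 1:1 with inoculum to final 5×10^5 CFU/mL. Incubated 20 h at 35 C in ambient air. Panel of 27 isolates: 22 clinical strains carrying aminoglycoside-modifying enzymes or perm/efflux resistance, 5 susceptible.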

[3] = tested on: Acinetobacter baumannii; assay: MIC, CLSI broth microdilution, Acinetobacter baumannii panel; assay type: cell-based
In short: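 CLSI M7-A7 broth microdilution in Mueller Hinton Broth, inoculum 5×10^5 CFU/mL, 20 h at 35 C in ambient air. Panel of 29 A. baumannii isolates, 24 clinical carrying aminoglycoside-modifying enzymes or perm/efflux mechanisms and 5 susceptible.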

Substance: gentamicin
- mortality and morbidity ([1]; 100 mg/kg/day subcutaneous): resulted in mortality and morbidity at 100 mg/kg/day due to nephrotoxicity
- macroscopic and microscopic changes in the kidneys ([1]; all dose levels (10, 30 or 100 mg/kg/day) subcutaneous): observed at all dose levels
- MIC ([2]; P. aeruginosa clinical strain 1 (resistant clinical isolate)): D (MIC's greater than or equal to 16.0 μg/mL and lower than 32 μg/mL = D)
- MIC ([2]; P. aeruginosa clinical strain 2 (resistant clinical isolate)): E (MIC's greater than or equal to 32.0 μg/mL = E)
- MIC ([2]; P. aeruginosa clinical strain 3 (resistant clinical isolate)): E (MIC's greater than or equal to 32.0 μg/mL = E)
- MIC ([2]; P. aeruginosa clinical strain 4 (resistant clinical isolate)): E (MIC's greater than or equal to 32.0 μg/mL = E)
- MIC ([2]; P. aeruginosa clinical strain 5 (resistant clinical isolate)): E (MIC's greater than or equal to 32.0 μg/mL = E)
- MIC ([2]; P. aeruginosa clinical strain 6 (resistant clinical isolate)): E (MIC's greater than or equal to 32.0 μg/mL = E)
- MIC ([2]; P. aeruginosa clinical strain 7 (resistant clinical isolate)): E (MIC's greater than or equal to 32.0 μg/mL = E)
- MIC ([2]; P. aeruginosa clinical strain 8 (resistant clinical isolate)): E (MIC's greater than or equal to 32.0 μg/mL = E)
- MIC ([2]; P. aeruginosa clinical strain 9 (resistant clinical isolate)): E (MIC's greater than or equal to 32.0 μg/mL = E)
- MIC ([2]; P. aeruginosa clinical strain 10 (resistant clinical isolate)): E (MIC's greater than or equal to 32.0 μg/mL = E)
- MIC ([2]; P. aeruginosa clinical strain 11 (resistant clinical isolate)): D (MIC's greater than or equal to 16.0 μg/mL and lower than 32 μg/mL = D)
- MIC ([2]; P. aeruginosa clinical strain 12 (resistant clinical isolate)): E (MIC's greater than or equal to 32.0 μg/mL = E)
- MIC ([2]; P. aeruginosa clinical strain 13 (resistant clinical isolate)): E (MIC's greater than or equal to 32.0 μg/mL = E)
- MIC ([2]; P. aeruginosa clinical strain 14 (resistant clinical isolate)): E (MIC's greater than or equal to 32.0 μg/mL = E)
- MIC ([2]; P. aeruginosa clinical strain 15 (resistant clinical isolate)): E (MIC's greater than or equal to 32.0 μg/mL = E)
- MIC ([2]; P. aeruginosa clinical strain 16 (resistant clinical isolate)): E (MIC's greater than or equal to 32.0 μg/mL = E)
- MIC ([2]; P. aeruginosa clinical strain 17 (resistant clinical isolate)): E (MIC's greater than or equal to 32.0 μg/mL = E)
- MIC ([2]; P. aeruginosa clinical strain 18 (resistant clinical isolate)): E (MIC's greater than or equal to 32.0 μg/mL = E)
- MIC ([2]; P. aeruginosa clinical strain 19 (resistant clinical isolate)): E (MIC's greater than or equal to 32.0 μg/mL = E)
- MIC ([2]; P. aeruginosa clinical strain 20 (resistant clinical isolate)): C (MIC's greater than or equal to 8 μg/mL and lower than 16.0 μg/mL = C)
- MIC ([2]; P. aeruginosa clinical strain 21 (resistant clinical isolate)): C (MIC's greater than or equal to 8 μg/mL and lower than 16.0 μg/mL = C)
- MIC ([2]; P. aeruginosa clinical strain 22 (resistant clinical isolate)): B (MIC's of greater than 1.0 μg/mL and lower than 8 μg/mL = B)
- MIC ([2]; P. aeruginosa strain 23 (susceptible)): A (MIC's of 1.0 μg/mL or less = A)
- MIC ([2]; P. aeruginosa strain 24 (susceptible)): B (MIC's of greater than 1.0 μg/mL and lower than 8 μg/mL = B)
- MIC ([2]; P. aeruginosa strain 25 (susceptible)): A (MIC's of 1.0 μg/mL or less = A)
- MIC ([2]; P. aeruginosa strain 26 (susceptible)): A (MIC's of 1.0 μg/mL or less = A)
- MIC ([2]; P. aeruginosa strain 27 (susceptible)): A (MIC's of 1.0 μg/mL or less = A)
- MIC ([3]; A. baumannii clinical strain 1 (resistant clinical isolate)): E (MIC's greater than or equal to 32.0 μg/mL = E)
- MIC ([3]; A. baumannii clinical strain 2 (resistant clinical isolate)): E (MIC's greater than or equal to 32.0 μg/mL = E)
- MIC ([3]; A. baumannii clinical strain 3 (resistant clinical isolate)): C (MIC's greater than or equal to 8 μg/mL and lower than 16.0 μg/mL = C)
- MIC ([3]; A. baumannii clinical strain 4 (resistant clinical isolate)): E (MIC's greater than or equal to 32.0 μg/mL = E)
- MIC ([3]; A. baumannii clinical strain 5 (resistant clinical isolate)): E (MIC's greater than or equal to 32.0 μg/mL = E)
- MIC ([3]; A. baumannii clinical strain 6 (resistant clinical isolate)): E (MIC's greater than or equal to 32.0 μg/mL = E)
- MIC ([3]; A. baumannii clinical strain 7 (resistant clinical isolate)): E (MIC's greater than or equal to 32.0 μg/mL = E)
- MIC ([3]; A. baumannii clinical strain 8 (resistant clinical isolate)): E (MIC's greater than or equal to 32.0 μg/mL = E)
- MIC ([3]; A. baumannii clinical strain 9 (resistant clinical isolate)): E (MIC's greater than or equal to 32.0 μg/mL = E)
- MIC ([3]; A. baumannii clinical strain 10 (resistant clinical isolate)): E (MIC's greater than or equal to 32.0 μg/mL = E)
- MIC ([3]; A. baumannii clinical strain 11 (resistant clinical isolate)): E (MIC's greater than or equal to 32.0 μg/mL = E)
- MIC ([3]; A. baumannii clinical strain 12 (resistant clinical isolate)): E (MIC's greater than or equal to 32.0 μg/mL = E)
- MIC ([3]; A. baumannii clinical strain 13 (resistant clinical isolate)): A (MIC's of 1.0 μg/mL or less = A)
- MIC ([3]; A. baumannii clinical strain 14 (resistant clinical isolate)): B (MIC's of greater than 1.0 μg/mL and lower than 8 μg/mL = B)
- MIC ([3]; A. baumannii clinical strain 15 (resistant clinical isolate)): A (MIC's of 1.0 μg/mL or less = A)
- MIC ([3]; A. baumannii clinical strain 16 (resistant clinical isolate)): B (MIC's of greater than 1.0 μg/mL and lower than 8 μg/mL = B)
- MIC ([3]; A. baumannii clinical strain 17 (resistant clinical isolate)): E (MIC's greater than or equal to 32.0 μg/mL = E)
- MIC ([3]; A. baumannii clinical strain 18 (resistant clinical isolate)): E (MIC's greater than or equal to 32.0 μg/mL = E)
- MIC ([3]; A. baumannii clinical strain 19 (resistant clinical isolate)): B (MIC's of greater than 1.0 μg/mL and lower than 8 μg/mL = B)
- MIC ([3]; A. baumannii clinical strain 20 (resistant clinical isolate)): C (MIC's greater than or equal to 8 μg/mL and lower than 16.0 μg/mL = C)
- MIC ([3]; A. baumannii clinical strain 21 (resistant clinical isolate)): E (MIC's greater than or equal to 32.0 μg/mL = E)
- MIC ([3]; A. baumannii clinical strain 22 (resistant clinical isolate)): E (MIC's greater than or equal to 32.0 μg/mL = E)
- MIC ([3]; A. baumannii clinical strain 23 (resistant clinical isolate)): E (MIC's greater than or equal to 32.0 μg/mL = E)
- MIC ([3]; A. baumannii clinical strain 24 (resistant clinical isolate)): E (MIC's greater than or equal to 32.0 μg/mL = E)
- MIC ([3]; A. baumannii strain 25 (susceptible)): A (MIC's of 1.0 μg/mL or less = A)
- MIC ([3]; A. baumannii strain 26 (susceptible)): A (MIC's of 1.0 μg/mL or less = A)
- MIC ([3]; A. baumannii strain 27 (susceptible)): A (MIC's of 1.0 μg/mL or less = A)
- MIC ([3]; A. baumannii strain 28 (susceptible)): A (MIC's of 1.0 μg/mL or less = A)
- MIC ([3]; A. baumannii strain 29 (susceptible)): A (MIC's of 1.0 μg/mL or less = A)
